According to article PMC10178204, “Peptaibol Analogs Show Potent Antibacterial Activity against Multidrug Resistant Opportunistic Pathogens” (International Journal of Molecular Sciences, 2023):
Values after ≈ are worked out from the molar mass of the structure shown. Values joined by “and” are separate entries in the source; they are usually repeats but may differ in a detail not shown here. Equal values may be shown once. Non-standard residues stand in square brackets, D forms with d. Residues, ends and D or L forms follow the SMILES beside them. *: point of attachment. Octanoyl = CCCCCCCC(=O)*; Aib = CC(C)(N)C(=O)O

Legend:
[1] = tested on: blood agar plate (Columbia CNA Agar); assay: Hemolysis on blood agar plate; conditions: 35 ± 2 °C, 24 h; for Hemolysis (class): 50 μg peptide (2 μL of 25 mg/mL in DMSO) spotted on blood agar, visual, triplicate
Experimental: Hemolysis zones were visually determined and measured. […] For two additional peptides (6 and 15), only a small hemolysis zone (diameter 4–5 mm) was visible, as compared to that of the positive control (Triton X-100, 13 mm).
Briefly, 2 μL of each peptide solution in DMSO (25 mg/mL), corresponding to 50 μg, was spotted on the surface of a blood agar plate (Columbia CNA Agar, Becton Dickinson Italia S.p.A., Florence, Italy). The plate was then incubated at 35 ± 2 °C for 24 h and visually inspected for the presence of hemolysis zones (see Figure S13, Supplementary Material). The experiment was performed in triplicate. Table 2 reports the average value of the diameter of hemolysis zones measured in each individual experiment. Triton X-100 was used as a positive control (diameter of the hemolysis zone: 13 mm), while DMSO was used as a negative control.
Figure S13. Implementation of the hemolysis test as described in Bechlars et al.. After spotting
2 µL (50 µg) of each compound at a random location on the blood agar plate and incubation at 35 ±
2 °C for 24 h, the plates were manually inspected for the presence of hemolysis zones. Triton X-100
and DMSO were used as the positive and negative controls, respectively. Results were interpreted
(1 picture or pasted object on this page, not shown here)

[2] = tested on: P. aeruginosa VA-182/00 (VIM-2); conditions: MHB, 5 × 10^5 CFU/mL, 18 h, 35 °C, triplicate
Experimental: (§1) The minimum inhibitory concentration (MIC) and the minimum bactericidal concentration (MBC) of the compounds were determined in triplicate using Mueller–Hinton broth (MHB). […] Therefore, we decided to dissolve all peptides in DMSO to a final concentration of 25 mg/mL, for consistency. The bacteria inoculum was 5 × 10^5 CFU/mL, as recommended by CLSI (Document M07-A10, 2015). […] Reference-type strains, including representatives of both Gram-positive bacteria (Bacillus subtilis ATCC 6633, Enterococcus faecalis ATCC 29212, Staphylococcus aureus ATCC 25923, the methicillin-resistant Staphylococcus aureus ATCC 43300 (MRSA), Streptococcus pyogenes ATCC 12344) and Gram-negative bacteria (Escherichia coli CCUGT, Klebsiella pneumoniae ATCC 13833, Pseudomonas aeruginosa ATCC 27853, and Acinetobacter baumannii ATCC 17978), were acquired from ATCC or CCUG culture collections. Other antibiotic-resistant clinical isolates were present in our collection at the University Teaching Hospital (Azienda Ospedaliero-Universitaria Senese ‘Santa Maria alle Scotte’) in Siena, Tuscany, Italy. Specifically, MDR carbapenem-hydrolyzing class D β-lactamase-producing Acinetobacter baumannii and metallo-β-lactamase-producing Pseudomonas aeruginosa were used in this study (Table 4).

[3] = tested on: P. aeruginosa 101/1477 (IMP-1); conditions: MHB, 5 × 10^5 CFU/mL, 18 h, 35 °C, triplicate
Experimental: as §1

[4] = tested on: P. aeruginosa 506/99 (VIM-2); conditions: MHB, 5 × 10^5 CFU/mL, 18 h, 35 °C, triplicate
Experimental: as §1

[5] = tested on: S. aureus ATCC 43300 (MRSA); conditions: MHB, 5 × 10^5 CFU/mL, 18 h, 35 °C, triplicate
Experimental: as §1

[6] = tested on: P. aeruginosa VR-143/97 (VIM-1); conditions: MHB, 5 × 10^5 CFU/mL, 18 h, 35 °C, triplicate
Experimental: as §1

[7] = tested on: A. baumannii SI-12 (OXA-23); conditions: MHB, 5 × 10^5 CFU/mL, 18 h, 35 °C, triplicate
Experimental: as §1

[8] = tested on: A. baumannii SI-310 (OXA-24); conditions: colistin-resistant isolate; MHB, 5 × 10^5 CFU/mL, 18 h, 35 °C, triplicate
Experimental: as §1

[9] = tested on: A. baumannii SI-648 (OXA-23, OXA-51-like); conditions: MHB, 5 × 10^5 CFU/mL, 18 h, 35 °C, triplicate
Experimental: as §1

[10] = tested on: Pseudomonas aeruginosa ATCC 27853; conditions: MHB, 5 × 10^5 CFU/mL, 18 h, 35 °C, triplicate
Description: (§2) The antibacterial activity of the peptides was initially assessed on a panel of representative Gram-positive and Gram-negative organisms of high clinical relevance and commonly responsible for bacterial infections in both animals and humans. Bacillus subtilis ATCC 6633 (Bsu) was also included as a rod-shaped model Gram-positive organism. This first panel comprised: Enterococcus faecalis ATCC 29212 (Efa); Streptococcus pyogenes ATCC 12344 (Spy); and Staphylococcus aureus ATCC 25923 (Sau); Gram-negative: Escherichia coli CCUGT (Eco), Klebsiella pneumoniae ATCC 13833 (Kpn), Acinetobacter baumannii ATCC 17978 (Aba), and Pseudomonas aeruginosa ATCC 27853 (Pae) (Table 2). Both the minimum inhibitory concentration (MIC, Table 2) and the minimum bactericidal concentration (MBC, Table S1, Supporting Material) were determined.
as §1

[11] = tested on: Klebsiella pneumoniae ATCC 13833; conditions: MHB, 5 × 10^5 CFU/mL, 18 h, 35 °C, triplicate
Description: as §2, §1

[12] = tested on: Streptococcus pyogenes ATCC 12344; conditions: MHB, 5 × 10^5 CFU/mL, 18 h, 35 °C, triplicate
Description: as §2, §1

[13] = tested on: Staphylococcus aureus ATCC 25923; conditions: MHB, 5 × 10^5 CFU/mL, 18 h, 35 °C, triplicate
Description: as §2, §1

Escherichia coli CCUGT = conditions: MHB, 5 × 10^5 CFU/mL, 18 h, 35 °C, triplicate
Description: as §2, §1

[14] = tested on: Enterococcus faecalis ATCC 29212; conditions: MHB, 5 × 10^5 CFU/mL, 18 h, 35 °C, triplicate
Description: as §2, §1

[15] = tested on: Bacillus subtilis ATCC 6633; conditions: MHB, 5 × 10^5 CFU/mL, 18 h, 35 °C, triplicate
Description: as §2, §1

[16] = tested on: Acinetobacter baumannii ATCC 17978; conditions: for MIC against A. baumannii, in molar units: corresponding to 2 and 8 μg/mL
Description: as §2, §1

[17] = tested on: reference Gram-positive and Gram-negative strains; conditions: lowest value over the eight reference strains
Description: as §2, §1

[18] = MHB, 5 × 10^5 CFU/mL, 18 h, 35 °C, triplicate

Structure (SMILES)	Hemolysis (class) [1]	MIC P. aeruginosa VA-182/00 (VIM-2) [2]	MIC P. aeruginosa 101/1477 (IMP-1) [3]	MIC P. aeruginosa 506/99 (VIM-2) [4]	MBC S. aureus ATCC 43300 (MRSA) [5]	MIC S. aureus ATCC 43300 (MRSA) [5]	MIC P. aeruginosa VR-143/97 (VIM-1) [6]	MBC A. baumannii SI-12 (OXA-23) [7]	MIC A. baumannii SI-12 (OXA-23) [7]	MBC A. baumannii SI-310 (OXA-24) [8]	MIC A. baumannii SI-310 (OXA-24) [8]	MBC A. baumannii SI-648 (OXA-23, OXA-51-like) [9]	MIC A. baumannii SI-648 (OXA-23, OXA-51-like) [9]	MIC Kpn [11]	MBC Spy [12]	MIC Spy [12]	MIC Sau [13]	MBC Eco (Escherichia coli CCUGT)	MIC Eco (Escherichia coli CCUGT)	MBC Efa [14]	further results
CCCCCCCC(=O)NC(C)(C)C(=O)NCC(=O)N[C@@H](CC(C)C)C(=O)NC(C)(C)C(=O)NCC(=O)N[C@@H](CCCCN)C(=O)N[C@@H](CC(C)C)C(=O)NC(C)(C)C(=O)NCC(=O)N[C@H](C(=O)N[C@H](CO)CC(C)C)[C@@H](C)CC [Peptide 10, 1-Oct-Aib-Gly-Leu-Aib-Gly-Lys-Leu-Aib-Gly-Ile-Lol]	+	> 128 µg/mL	> 128 µg/mL	> 128 µg/mL	8 µg/mL (≈ 7.03 µM)	4 µg/mL (≈ 3.52 µM)	> 128 µg/mL	32 µg/mL (≈ 28.1 µM)	32 μg/mL and 32/32 μg/mL	16 µg/mL (≈ 14.1 µM)	16 μg/mL and 16/16 μg/mL	16 µg/mL (≈ 14.1 µM)	16 μg/mL and 16/16 μg/mL	16 µg/mL (≈ 14.1 µM)	16 µg/mL (≈ 14.1 µM)	4 µg/mL (≈ 3.52 µM)	8 µg/mL (≈ 7.03 µM)	128 µg/mL (≈ 113 µM)	64 µg/mL (≈ 56.3 µM)	16 µg/mL (≈ 14.1 µM)	Hemolysis (d, diameter of hemolysis zone) ([1]; 50 μg spotted on blood agar, average of triplicate): 11 mm; MBC Pae [10]: 128 µg/mL (≈ 113 µM); MBC Kpn [11]: 64 µg/mL (≈ 56.3 µM); MBC Sau [13]: 16 µg/mL (≈ 14.1 µM); MIC Efa [14]: 4 µg/mL (≈ 3.52 µM); MBC Bsu [15]: 16 µg/mL (≈ 14.1 µM); MIC Bsu [15]: 4 µg/mL (≈ 3.52 µM); MBC Aba [16, 18]: > 128 µg/mL; MIC against A. baumannii, in molar units [16]: 1.8 to 7.2 µM
CCCCCCCC(=O)NC(C)(C)C(=O)N[C@@H](CCCCN)C(=O)N[C@@H](CC(C)C)C(=O)NC(C)(C)C(=O)N[C@@H](CCCCN)C(=O)N[C@@H](CCCCN)C(=O)N[C@@H](CC(C)C)C(=O)NC(C)(C)C(=O)NCC(=O)N[C@H](C(=O)N[C@@H](CC(C)C)C(N)=O)[C@@H](C)CC [Peptide 11, 1-Oct-Aib-Lys-Leu-Aib-Lys-Lys-Leu-Aib-Gly-Ile-Leu-NH2] (Octanoyl-[Aib]KL[Aib]KKL[Aib]GIL-NH2)	-	8 µg/mL (≈ 6.19 µM)	8 µg/mL (≈ 6.19 µM)	8 µg/mL (≈ 6.19 µM)	2 µg/mL (≈ 1.55 µM)	2 µg/mL (≈ 1.55 µM)	8 µg/mL (≈ 6.19 µM)	32 µg/mL (≈ 24.8 µM)	32 μg/mL and 32/32 μg/mL	4 µg/mL (≈ 3.09 µM)	2 µg/mL (≈ 1.55 µM)	4 µg/mL (≈ 3.09 µM)	2 µg/mL (≈ 1.55 µM)	> 128 µg/mL	16 µg/mL (≈ 12.4 µM)	4 µg/mL (≈ 3.09 µM)	16 µg/mL (≈ 12.4 µM)	128 µg/mL (≈ 99 µM)	16 µg/mL (≈ 12.4 µM)	32 µg/mL (≈ 24.8 µM)	MBC P. aeruginosa VA-182/00 (VIM-2) [2]: 32 µg/mL (≈ 24.8 µM); MBC P. aeruginosa 101/1477 (IMP-1) [3]: 8 µg/mL (≈ 6.19 µM); MBC P. aeruginosa 506/99 (VIM-2) [4]: 16 µg/mL (≈ 12.4 µM); MBC P. aeruginosa VR-143/97 (VIM-1) [6]: 8 µg/mL (≈ 6.19 µM); lowest MIC [17]: 2 µg/mL; MIC Efa [14]: 4 µg/mL (≈ 3.09 µM); MBC Bsu [15]: 16 µg/mL (≈ 12.4 µM); MIC Bsu [15]: 2 µg/mL (≈ 1.55 µM); MBC Aba [16, 18]: 2 µg/mL (≈ 1.55 µM); MIC Aba [16, 18]: 2 µg/mL (≈ 1.55 µM); MIC against A. baumannii, in molar units [16]: 1.8 to 7.2 µM
